Six compounds from patent publication US12252524B2, “GIP/GLP1 co-agonist compounds” (Eli Lilly and Company, priority 2018, dated 2025) can be followed below.

The target in experiment [1] is human GLP-1 receptor (GLP-1R) (Homo sapiens, UniProt P43220). In words: cAMP pharmacological functional assay in presence of casein, hGLP-1R. The format is cell-based. Conditions: HEK293 cells expressing hGLP-1R, 0.1% Casein, geometric mean; read-out: hGLP1R cAMP Rel EC50 nM (SEM, n).
Experiment [2] deals with T1, gastric inhibitory peptide receptor (GIPR) (Homo sapiens, UniProt P48546).
T1 sequence (P48546 22-466): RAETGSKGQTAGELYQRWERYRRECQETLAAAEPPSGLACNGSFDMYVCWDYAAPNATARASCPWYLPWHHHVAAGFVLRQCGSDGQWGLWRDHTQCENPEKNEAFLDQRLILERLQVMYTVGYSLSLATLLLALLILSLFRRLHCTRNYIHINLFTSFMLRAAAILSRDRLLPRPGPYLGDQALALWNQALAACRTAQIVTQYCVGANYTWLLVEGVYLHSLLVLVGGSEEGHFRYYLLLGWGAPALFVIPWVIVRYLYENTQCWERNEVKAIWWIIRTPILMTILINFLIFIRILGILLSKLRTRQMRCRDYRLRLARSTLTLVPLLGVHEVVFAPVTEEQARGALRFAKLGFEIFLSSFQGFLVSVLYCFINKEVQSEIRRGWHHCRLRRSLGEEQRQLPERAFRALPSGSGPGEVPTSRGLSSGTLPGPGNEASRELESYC
In words: cAMP pharmacological functional assay in presence of casein, hGIPR. The format is cell-based. Conditions: HEK293 cells expressing hGIPR, 0.1% Casein, geometric mean; read-out: hGIPR cAMP Rel EC50 nM (SEM, n).

The next experiment has as its target T2, human GIP receptor (Homo sapiens, UniProt P48546).
T2 construct: expressed in transfected cells; crude membranes
T2 sequence (P48546 22-466): T1 sequence (P48546 22-466)
The experiment in a line: [125I]-GIP binding (SPA), human GIP receptor. Conditions: read-out: hGIPR Ki, nM (SEM, n).

Another experiment has as its target human GLP-1R (Homo sapiens, UniProt P43220). In words: [125I]-GLP-1 binding (SPA), human GLP-1 receptor. Also on record: expressed in transfected cells; crude membranes. Conditions: read-out: hGLP1R Ki, (nM) (SEM, n). The method in brief: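 Membranes: hypotonic lysis (50 mM Tris HCl, pH 7.5, protease inhibitors), Potter-Elvehjem homogenization, high-speed pellet (35000×g 1 h or 25000×g 30 min, 4° C.). Buffer: 25 mM HEPES pH 7.4, 2.5 mM CaCl2, 1 mM MgCl2. Four-parameter IC50 fit; Ki as geometric mean ± SEM.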

The target in a further experiment is T3, human Gcg receptor (Homo sapiens, UniProt P47871).
T3 construct: expressed in transfected cells; crude membranes
In words: [125I]-Glucagon binding (SPA), human Gcg receptor. Conditions: read-out: hGLcgR Ki, nM (SEM, n). The gist of the method: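 Cell pellets were lysed in hypotonic Tris buffer, pH 7.5, homogenized, and spun at low then high speed to give crude membranes. Ki was derived from the fitted IC50.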

Numbered stars: 1 amine (or outer) side, 2 acyl side, 3 side chain; on linkers, the order of the positions; unused ones are H or OH. Square brackets hold non-standard residues; d marks the D form. Side chains are listed from the residue outwards. Peptide text beside a SMILES is read from it. * marks the point of attachment. C18 diacid = O=C(O)CCCCCCCCCCCCCCCCC(=O)*; αMePhe(2-F) = C[C@](N)(Cc1ccccc1F)C(=O)O; γGlu = O=C(O)[C@H](CCC(=O)[*:2])N[*:1]; αMeF = C[C@](N)(Cc1ccccc1)C(=O)O; AEEA = NCCOCCOCC(=O)O; Aib = CC(C)(N)C(=O)O

T3 sequence (P47871 26-477): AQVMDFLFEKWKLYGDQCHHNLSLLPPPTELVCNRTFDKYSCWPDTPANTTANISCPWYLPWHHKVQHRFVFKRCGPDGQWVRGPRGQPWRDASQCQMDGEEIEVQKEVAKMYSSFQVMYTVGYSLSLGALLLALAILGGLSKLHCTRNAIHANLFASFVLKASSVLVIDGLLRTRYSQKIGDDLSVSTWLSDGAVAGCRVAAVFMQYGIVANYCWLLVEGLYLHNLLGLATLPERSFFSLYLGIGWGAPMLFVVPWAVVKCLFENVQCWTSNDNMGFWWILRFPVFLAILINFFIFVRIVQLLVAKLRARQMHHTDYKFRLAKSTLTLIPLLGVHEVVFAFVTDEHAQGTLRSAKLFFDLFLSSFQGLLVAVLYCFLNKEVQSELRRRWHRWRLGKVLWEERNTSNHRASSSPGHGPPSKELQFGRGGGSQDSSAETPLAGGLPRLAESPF
Sequence of human GLP-1R (P43220 24-463): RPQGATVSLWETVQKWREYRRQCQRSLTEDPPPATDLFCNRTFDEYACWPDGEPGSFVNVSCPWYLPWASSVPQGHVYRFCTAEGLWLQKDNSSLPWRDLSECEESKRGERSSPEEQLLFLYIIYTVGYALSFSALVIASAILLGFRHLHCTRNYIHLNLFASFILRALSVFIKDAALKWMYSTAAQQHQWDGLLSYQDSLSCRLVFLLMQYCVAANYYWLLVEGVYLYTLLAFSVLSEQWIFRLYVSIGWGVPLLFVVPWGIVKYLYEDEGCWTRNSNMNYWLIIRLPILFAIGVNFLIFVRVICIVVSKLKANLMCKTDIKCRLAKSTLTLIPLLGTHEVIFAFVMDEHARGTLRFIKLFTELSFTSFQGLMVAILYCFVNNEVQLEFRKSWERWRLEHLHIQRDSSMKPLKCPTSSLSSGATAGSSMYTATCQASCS
Sequence of human GLP-1 receptor (GLP-1R) (P43220 24-463): as above

`CC[C@H](C)[C@H](NC(=O)[C@H](CC(C)C)NC(=O)[C@H](Cc1ccc(O)cc1)NC(=O)[C@H](CCC(=O)O)NC(=O)[C@@H](NC(=O)[C@H](Cc1ccccc1)NC(=O)[C@H](C)NC(=O)C(C)(C)NC(=O)[C@H](CCC(N)=O)NC(=O)[C@H](C)NC(=O)[C@H](CCCCNC(=O)COCCOCCNC(=O)COCCOCCNC(=O)CC[C@H](NC(=O)CCCCCCCCCCCCCCCCC(=O)O)C(=O)O)NC(=O)[C@H](CCCCN)NC(=O)[C@H](CC(=O)O)NC(=O)[C@H](CC(C)C)NC(=O)[C@H](CC(C)C)NC(=O)[C@@H](NC(=O)[C@H](CO)NC(=O)[C@H](Cc1ccc(O)cc1)NC(=O)[C@H](CC(=O)O)NC(=O)[C@H](CO)NC(=O)[C@@H](NC(=O)[C@](C)(Cc1ccccc1)NC(=O)[C@@H](NC(=O)CNC(=O)[C@H](CCC(=O)O)NC(=O)C(C)(C)NC(=O)[C@@H](N)Cc1ccc(O)cc1)[C@@H](C)O)[C@@H](C)O)[C@@H](C)CC)[C@@H](C)CC)C(=O)N[C@@H](C)C(=O)NCC(=O)NCC(=O)N1CCC[C@H]1C(=O)N[C@@H](CO)C(=O)N[C@@H](CO)C(=O)NCC(N)=O` [Example 309] (H-Y[Aib]EGT[αMeF]TSDYSILLDKK([AEEA-AEEA-γGlu-C18 diacid])AQ[Aib]AFIEYLIAGGPSSG-NH2): the results for the EC50 in experiment [1] and in experiment [2] were 0.033 nM and 0.0389 nM, respectively. Moreover, the Ki (as a rule, a measure of affinity in units of concentration, obtained from inhibition or displacement) is 0.0264 nM at human GIP receptor, 1.04 nM on human GLP-1R and 64.1 nM on human Gcg receptor.

Regarding `CC[C@H](C)[C@H](NC(=O)[C@H](CC(C)C)NC(=O)[C@H](Cc1ccc(O)cc1)NC(=O)[C@H](CCC(=O)O)NC(=O)[C@@H](NC(=O)[C@H](Cc1ccccc1)NC(=O)[C@H](CCC(=O)O)NC(=O)C(C)(C)NC(=O)[C@H](CCC(N)=O)NC(=O)[C@H](C)NC(=O)[C@H](CCCCNC(=O)COCCOCCNC(=O)COCCOCCNC(=O)CC[C@H](NC(=O)CCCCCCCCCCCCCCCCC(=O)O)C(=O)O)NC(=O)[C@H](CCCCN)NC(=O)[C@H](CC(=O)O)NC(=O)[C@H](CC(C)C)NC(=O)[C@H](CC(C)C)NC(=O)[C@@H](NC(=O)[C@H](CO)NC(=O)[C@H](Cc1ccc(O)cc1)NC(=O)[C@H](CC(=O)O)NC(=O)[C@H](CO)NC(=O)[C@@H](NC(=O)[C@](C)(Cc1ccccc1)NC(=O)[C@@H](NC(=O)CNC(=O)[C@H](CCC(=O)O)NC(=O)C(C)(C)NC(=O)[C@@H](N)Cc1ccc(O)cc1)[C@@H](C)O)[C@@H](C)O)[C@@H](C)CC)[C@@H](C)CC)C(=O)N[C@@H](C)C(=O)NCC(=O)NCC(=O)N1CCC[C@H]1C(=O)N[C@@H](CO)C(=O)N[C@@H](CO)C(=O)NCC(N)=O` [Example 310] (H-Y[Aib]EGT[αMeF]TSDYSILLDKK([AEEA-AEEA-γGlu-C18 diacid])AQ[Aib]EFIEYLIAGGPSSG-NH2; N-terminus assumed), the EC50 – broadly, the concentration giving half of the maximal effect – in experiment [1] amounted to 0.0283 nM; in experiment [2], 0.0176 nM. Further, the inhibition constant (Ki) was determined as 0.0315 nM on human GIP receptor, 1.7 nM on human GLP-1R and 174 nM on human Gcg receptor.

`CC[C@H](C)[C@H](NC(=O)[C@H](CC(C)C)NC(=O)[C@H](Cc1ccc(O)cc1)NC(=O)[C@H](CCC(=O)O)NC(=O)[C@@H](NC(=O)[C@H](Cc1ccccc1)NC(=O)[C@H](C)NC(=O)C(C)(C)NC(=O)[C@H](CCC(N)=O)NC(=O)[C@H](C)NC(=O)[C@H](CCCCNC(=O)COCCOCCNC(=O)COCCOCCNC(=O)CC[C@H](NC(=O)CCCCCCCCCCCCCCCCC(=O)O)C(=O)O)NC(=O)[C@H](CCC(=O)O)NC(=O)[C@H](CC(=O)O)NC(=O)[C@H](CC(C)C)NC(=O)[C@H](CC(C)C)NC(=O)[C@@H](NC(=O)[C@H](CO)NC(=O)[C@H](Cc1ccc(O)cc1)NC(=O)[C@H](CC(=O)O)NC(=O)[C@H](CO)NC(=O)[C@@H](NC(=O)[C@](C)(Cc1ccccc1F)NC(=O)[C@@H](NC(=O)CNC(=O)[C@H](CCC(=O)O)NC(=O)C(C)(C)NC(=O)[C@@H](N)Cc1ccc(O)cc1)[C@@H](C)O)[C@@H](C)O)[C@@H](C)CC)[C@@H](C)CC)C(=O)N[C@@H](CCC(=O)O)C(=O)NCC(=O)NCC(=O)N1CCC[C@H]1C(=O)N[C@@H](CO)C(=O)N[C@@H](CO)C(=O)NCC(N)=O` [Example 311] (H-Y[Aib]EGT[αMePhe(2-F)]TSDYSILLDEK([AEEA-AEEA-γGlu-C18 diacid])AQ[Aib]AFIEYLIEGGPSSG-NH2): the EC50 is 0.0393 nM in experiment [1] and 0.0334 nM in experiment [2]. Besides, the Ki at human GIP receptor worked out at 0.0497 nM; at human GLP-1R it was 11.5 nM; at human Gcg receptor it was 115 nM.

As for `CC[C@H](C)[C@H](NC(=O)[C@H](CC(C)C)NC(=O)[C@H](Cc1ccc(O)cc1)NC(=O)[C@H](CCC(=O)O)NC(=O)[C@@H](NC(=O)[C@H](Cc1ccccc1)NC(=O)[C@H](CCC(=O)O)NC(=O)C(C)(C)NC(=O)[C@H](CCC(N)=O)NC(=O)[C@H](C)NC(=O)[C@H](CCCCNC(=O)COCCOCCNC(=O)COCCOCCNC(=O)CC[C@H](NC(=O)CCCCCCCCCCCCCCCCC(=O)O)C(=O)O)NC(=O)[C@H](CCCCN)NC(=O)[C@H](CC(=O)O)NC(=O)[C@H](CC(C)C)NC(=O)[C@H](CC(C)C)NC(=O)[C@@H](NC(=O)[C@H](CO)NC(=O)[C@H](Cc1ccc(O)cc1)NC(=O)[C@H](CC(=O)O)NC(=O)[C@H](CO)NC(=O)[C@@H](NC(=O)[C@](C)(Cc1ccccc1F)NC(=O)[C@@H](NC(=O)CNC(=O)[C@H](CCC(=O)O)NC(=O)C(C)(C)NC(=O)[C@@H](N)Cc1ccc(O)cc1)[C@@H](C)O)[C@@H](C)O)[C@@H](C)CC)[C@@H](C)CC)C(=O)N[C@@H](CCC(=O)O)C(=O)NCC(=O)NCC(=O)N1CCC[C@H]1C(=O)N[C@@H](CO)C(=O)N[C@@H](CO)C(=O)NCC(N)=O` [Example 312] (H-Y[Aib]EGT[αMePhe(2-F)]TSDYSILLDKK([AEEA-AEEA-γGlu-C18 diacid])AQ[Aib]EFIEYLIEGGPSSG-NH2), the EC50 in experiment [1] amounted to 0.0262 nM; in experiment [2] it was 0.0207 nM. The results for the inhibitory constant (Ki) at human GIP receptor, on human GLP-1R and on human Gcg receptor were 0.0348 nM, 1.63 nM and 106 nM, respectively.

`CC[C@H](C)[C@H](NC(=O)[C@H](CC(C)C)NC(=O)[C@H](Cc1ccc(O)cc1)NC(=O)[C@H](CCC(=O)O)NC(=O)[C@@H](NC(=O)[C@H](Cc1ccccc1)NC(=O)[C@H](C)NC(=O)C(C)(C)NC(=O)[C@H](CCC(N)=O)NC(=O)[C@H](C)NC(=O)[C@H](CCCCNC(=O)COCCOCCNC(=O)COCCOCCNC(=O)CC[C@H](NC(=O)CCCCCCCCCCCCCCCCC(=O)O)C(=O)O)NC(=O)[C@H](CCCCN)NC(=O)[C@H](CC(=O)O)NC(=O)[C@H](CC(C)C)NC(=O)[C@H](CC(C)C)NC(=O)[C@@H](NC(=O)[C@H](CO)NC(=O)[C@H](Cc1ccc(O)cc1)NC(=O)[C@H](CC(=O)O)NC(=O)[C@H](CO)NC(=O)[C@@H](NC(=O)[C@](C)(Cc1ccccc1F)NC(=O)[C@@H](NC(=O)CNC(=O)[C@H](CCC(=O)O)NC(=O)C(C)(C)NC(=O)[C@@H](N)Cc1ccc(O)cc1)[C@@H](C)O)[C@@H](C)O)[C@@H](C)CC)[C@@H](C)CC)C(=O)N[C@@H](C)C(=O)NCC(=O)NCC(=O)N1CCC[C@H]1C(=O)N[C@@H](CO)C(=O)N[C@@H](CO)C(=O)NCC(N)=O` [Example 313] (H-Y[Aib]EGT[αMePhe(2-F)]TSDYSILLDKK([AEEA-AEEA-γGlu-C18 diacid])AQ[Aib]AFIEYLIAGGPSSG-NH2): the results for the EC50 in experiment [1] and in experiment [2] were 0.0388 nM and 0.0233 nM, respectively. Moreover, the Ki came to 0.0261 nM on human GIP receptor, 0.815 nM at human GLP-1R and 27.6 nM at human Gcg receptor.

For `CC[C@H](C)[C@H](NC(=O)[C@H](CC(C)C)NC(=O)[C@H](Cc1ccc(O)cc1)NC(=O)[C@H](CCC(=O)O)NC(=O)[C@@H](NC(=O)[C@H](Cc1ccccc1)NC(=O)[C@H](CCC(=O)O)NC(=O)C(C)(C)NC(=O)[C@H](CCC(N)=O)NC(=O)[C@H](C)NC(=O)[C@H](CCCCNC(=O)COCCOCCNC(=O)COCCOCCNC(=O)CC[C@H](NC(=O)CCCCCCCCCCCCCCCCC(=O)O)C(=O)O)NC(=O)[C@H](CCCCN)NC(=O)[C@H](CC(=O)O)NC(=O)[C@H](CC(C)C)NC(=O)[C@H](CC(C)C)NC(=O)[C@@H](NC(=O)[C@H](CO)NC(=O)[C@H](Cc1ccc(O)cc1)NC(=O)[C@H](CC(=O)O)NC(=O)[C@H](CO)NC(=O)[C@@H](NC(=O)[C@](C)(Cc1ccccc1F)NC(=O)[C@@H](NC(=O)CNC(=O)[C@H](CCC(=O)O)NC(=O)C(C)(C)NC(=O)[C@@H](N)Cc1ccc(O)cc1)[C@@H](C)O)[C@@H](C)O)[C@@H](C)CC)[C@@H](C)CC)C(=O)N[C@@H](C)C(=O)NCC(=O)NCC(=O)N1CCC[C@H]1C(=O)N[C@@H](CO)C(=O)N[C@@H](CO)C(=O)NCC(N)=O` [Example 314] (H-Y[Aib]EGT[αMePhe(2-F)]TSDYSILLDKK([AEEA-AEEA-γGlu-C18 diacid])AQ[Aib]EFIEYLIAGGPSSG-NH2), the EC50 in experiment [1] and in experiment [2] was 0.029 nM throughout. In addition, the inhibitory constant (Ki) was found to be 0.027 nM at human GIP receptor, 0.717 nM on human GLP-1R and 116 nM on human Gcg receptor.
